Counter-ions that a name gives are not always drawn. Like-named read-outs stand apart in the source and are kept apart here.
Assays:
[1] = molecular target: T1, recombinant thioredoxin reductase 1 (TrxR1) (Homo sapiens, UniProt Q16881); assay: Inhibition of recombinant TrxR1 (DTNB assay); assay type: biochemical
T1 sequence (Q16881 1-649): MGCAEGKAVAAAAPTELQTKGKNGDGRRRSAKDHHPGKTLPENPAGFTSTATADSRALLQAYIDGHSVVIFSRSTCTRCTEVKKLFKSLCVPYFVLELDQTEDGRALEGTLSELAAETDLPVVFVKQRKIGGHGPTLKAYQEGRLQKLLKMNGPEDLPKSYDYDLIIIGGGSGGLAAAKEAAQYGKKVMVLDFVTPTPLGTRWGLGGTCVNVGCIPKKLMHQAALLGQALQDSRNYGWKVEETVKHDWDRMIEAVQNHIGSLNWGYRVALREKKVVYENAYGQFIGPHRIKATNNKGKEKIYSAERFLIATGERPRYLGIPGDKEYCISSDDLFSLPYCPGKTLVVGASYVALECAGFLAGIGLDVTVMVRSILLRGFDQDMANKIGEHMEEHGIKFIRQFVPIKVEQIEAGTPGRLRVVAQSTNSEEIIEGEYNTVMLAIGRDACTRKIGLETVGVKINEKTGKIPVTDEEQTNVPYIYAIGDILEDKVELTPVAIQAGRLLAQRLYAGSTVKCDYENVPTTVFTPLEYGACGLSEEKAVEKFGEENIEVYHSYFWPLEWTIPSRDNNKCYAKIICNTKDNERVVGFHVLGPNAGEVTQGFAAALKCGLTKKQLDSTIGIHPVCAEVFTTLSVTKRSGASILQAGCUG
Procedure: (§1) Small molecule inhibition of recombinant thioredoxin reductase 1 (TrxR1) and gluthathione reductase (GR) was examined in 96-well plate format. 15 nM TrxR1 was incubated in the presence of 250 μM NADPH, 0.1 mg/ml BSA, and various concentrations of the compound of Example 1 (1% DMSO final) in 50 mM Tris (pH 7.5) and 2 mM EDTA buffer for 15 minutes. Following the incubation period, 2.5 mM DTNB was added to each well and the change in O.D. at 412 nm was followed. Percent activity was determined using DMSO vehicle and no TrxR1 (blank) controls. 2 nM GR was incubated in the presence of 250 μM NADPH, 0.1 mg/ml BSA, and various concentrations of compounds (1% DMSO final) in 50 mM Tris (pH 7.5) and 2 mM EDTA buffer for 15 minutes. Following the incubation period, 1 mM GSSG was added to each well and the change in O.D. at 340 nm was followed. Percent activity was determined using DMSO vehicle and no GR (blank) controls.

[2] = molecular target: T2, gluthathione reductase (GR) (Homo sapiens, UniProt P00390); assay: Inhibition of recombinant GR (GSSG assay); assay type: biochemical
T2 sequence (P00390 44-522): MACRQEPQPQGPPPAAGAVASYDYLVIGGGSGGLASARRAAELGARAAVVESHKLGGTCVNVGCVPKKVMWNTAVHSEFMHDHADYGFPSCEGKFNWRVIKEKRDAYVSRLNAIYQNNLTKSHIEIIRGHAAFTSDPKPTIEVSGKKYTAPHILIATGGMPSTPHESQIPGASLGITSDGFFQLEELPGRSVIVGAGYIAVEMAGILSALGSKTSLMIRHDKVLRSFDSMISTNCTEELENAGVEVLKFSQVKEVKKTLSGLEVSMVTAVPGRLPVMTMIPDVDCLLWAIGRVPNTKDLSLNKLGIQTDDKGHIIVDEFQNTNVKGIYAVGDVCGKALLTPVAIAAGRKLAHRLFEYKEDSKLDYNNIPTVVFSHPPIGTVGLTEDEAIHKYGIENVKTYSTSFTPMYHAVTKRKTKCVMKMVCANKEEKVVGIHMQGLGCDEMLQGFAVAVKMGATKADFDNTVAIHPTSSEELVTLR
Procedure: as §1

[3] = Biological Example 4, assays of Biological Example 1, read-out: TrxR Inhibition
[4] = Biological Example 4, assays of Biological Example 1
[5] = Biological Example 1, 15 nM TrxR1, 250 μM NADPH, 15 minutes incubation, read-out: TrxR inhibition
[6] = Biological Example 1, 2 nM GR, 250 μM NADPH, 15 minutes incubation

Row | Structure (SMILES) | IC50 [1, 3] [µM] | IC50 [2, 4] [µM] | IC50 [1, 5] [µM] | IC50 [2, 6] [µM]
1 | Cc1ccc(F)c(CN2C3C=CC(=O)C2C2C(=O)N(c4ccccc4)C(=O)C23)c1F (stereo not drawn) [Example 39, exo-11-(2,6-Difluoro-3-methylbenzyl)-4-phenyl-4,11-diazatricyclo[5.3.1.0^2,6]-undec-9-ene-3,5,8-trione Trifluoroacetate] | 1.29 | > 100 | – | –
2 | CC1=CC(=O)C2C3C(=O)N(Cc4ccccc4)C(=O)C3C1N2Cc1ccccc1 (stereo not drawn) [Example 15, 4,11-Dibenzyl-10-methyl-4,11-diazatricyclo[5.3.1.0^2,6]undec-9-ene-3,5,8-trione Trifluoroacetate] | 3.33 | > 100 | 1.45 | > 100
3 | O=C1C=CC2C3C(=O)N(c4ccccc4)C(=O)C3C1N2Cc1cccc(F)c1F (stereo not drawn) [Example 31, exo-11-(2,3-Difluorobenzyl)-4-phenyl-4,11-diazatricyclo[5.3.1.0^2,6]undec-9-ene-3,5,8-trione Trifluoroacetate] | 1.06 | > 100 | – | –
4 | Cc1cccc(CN2C3C=CC(=O)C2C2C(=O)N(c4ccccc4)C(=O)C23)c1F (stereo not drawn) [Example 35, exo-11-(2-Fluoro-3-methylbenzyl)-4-phenyl-4,11-diazatricyclo[5.3.1.0^2,6]-undec-9-ene-3,5,8-trione Trifluoroacetate] | 1.06 | > 100 | – | –
5 | CC1=CC(=O)[C@@H]2[C@H]3C(=O)N(C4CCCCC4)C(=O)[C@H]3[C@H]1N2Cc1ccccc1 (relative stereo) [Example 14, exo-11-Benzyl-4-cyclohexyl-10-methyl-4,11-diazatricyclo[5.3.1.0^2,6]undec-9-ene-3,5,8-trione Trifluoroacetate] | 33.3 | > 100 | – | –
6 | O=C1C=CC2C3C(=O)N(c4ccccc4)C(=O)C3C1N2Cc1cccc(Cl)c1 (stereo not drawn) [Example 41, endo-11-(3-Chlorobenzyl)-4-phenyl-4,11-diazatricyclo[5.3.1.0^2,6]undec-9-ene-3,5,8-trione Trifluoroacetate] | 2.35 | 49.5 | – | –
7 | CN1C(=O)C2C(C1=O)C1C(=O)C=CC2N1C (stereo not drawn) [Example 60, exo-4,11-Dimethyl-4,11-diazatricyclo[5.3.1.0^2,6]undec-9-ene-3,5,8-trione Trifluoroacetate] | 15.4 | > 100 | – | –
8 | CCN1C(=O)[C@@H]2[C@H](C1=O)[C@H]1C(=O)C=C[C@@H]2N1C (relative stereo) [Example 61, exo-4-Ethyl-11-methyl-4,11-diazatricyclo[5.3.1.0^2,6]undec-9-ene-3,5,8-trione Trifluoroacetate] | 23.4 | > 100 | – | –
9 | CC(C)(C)N1C(=O)C2C(C1=O)[C@@H]1C=CC(=O)[C@H]2N1Cc1ccccc1 (mixture of isomers) [Example 16, endo 11-Benzyl-4-(tert-butyl)-4,11-diazatricyclo[5.3.1.0^2,6]undec-9-ene-3,5,8-trione Trifluoroacetate] | 5.56 | > 100 | – | –
10 | O=C1C=CC2C3C(=O)N(c4ccccc4)C(=O)C3C1N2Cc1cc(Cl)ccc1F (stereo not drawn) [Example 40, exo-11-(5-Chloro-2-fluorobenzyl)-4-phenyl-4,11-diazatricyclo[5.3.1.0^2,6]-undec-9-ene-3,5,8-trione Trifluoroacetate] | 0.77 | 31.6 | – | –

The remaining molecules from weak to strong by IC50 [1, 3], led by results:

Row | IC50 [1, 3] [µM] | IC50 [2, 4] [µM] | IC50 [1, 5] [µM] | IC50 [2, 6] [µM] | Structure (SMILES)
11 | 3.04 | > 100 | – | – | CC(=O)Nc1ccc(N2C(=O)[C@@H]3[C@H](C2=O)[C@H]2C(=O)C=C[C@@H]3N2Cc2cccc(C)c2)cc1 (stereo in doubt) [Example 57, N-(4-(11-(3-Methylbenzyl)-3,5,10-trioxo-4,11-diazatricyclo[5.3.1.0^2,6]undec-8-en-4-yl)phenyl)acetamide Trifluoroacetate]
12 | 1.8 | > 100 | – | – | O=C1C=C[C@H]2[C@@H]3C(=O)N(c4ccc(O)cc4)C(=O)[C@@H]3[C@@H]1N2Cc1ccccc1 (relative stereo) [Example 54, exo-11-Benzyl-4-(4-hydroxyphenyl)-4,11-diazatricyclo[5.3.1.0^2,6]undec-9-ene-3,5,8-trione Trifluoroacetate]
13 | 1.58 | > 100 | – | – | Cc1cccc(CN2[C@@H]3C(=O)C=C[C@H]2[C@@H]2C(=O)N(c4cccc(N5CCCCC5)c4)C(=O)[C@@H]23)c1 (relative stereo) [Example 63, exo-11-(3-Methylbenzyl)-4-(3-(piperidin-1-yl)phenyl)-4,11-diazatricyclo-[5.3.1.0^2,6]undec-9-ene-3,5,8-trione Trifluoroacetate]
14 | 1.5 | > 100 | – | – | Cc1ccccc1CN1[C@@H]2C(=O)C=C[C@H]1[C@@H]1C(=O)N(c3ccccc3)C(=O)[C@@H]12 (relative stereo) [Example 19, exo-11-(2-Methylbenzyl)-4-phenyl-4,11-diazatricyclo[5.3.1.0^2,6]undec-9-ene-3,5,8-trione Trifluoroacetate]
15 | 1.47 | 68.5 | – | – | N#Cc1cccc(CN2C3C=CC(=O)C2C2C(=O)N(c4ccccc4)C(=O)C23)c1 (stereo not drawn) [Example 36, 3-((4-Phenyl-3,5,10-trioxo-4,11-diazatricyclo[5.3.1.0^2,6]undec-8-en-11-yl)-methyl)benzonitrile Trifluoroacetate]
16 | 1.43 | > 100 | – | – | Cc1cccc(CN2[C@@H]3C(=O)C=C[C@H]2[C@@H]2C(=O)N(c4ccc(Br)cc4)C(=O)[C@@H]23)c1 (relative stereo) [Example 66, exo-4-(4-Bromophenyl)-11-(3-methylbenzyl)-4,11-diazatricyclo[5.3.1.0^2,6]-undec-9-ene-3,5,8-trione Trifluoroacetate]
17 | 1.24 | 75.2 | 1.97 | > 100 | COc1cccc(CN2[C@@H]3C(=O)C=C[C@H]2[C@@H]2C(=O)N(c4ccccc4)C(=O)[C@@H]23)c1 (relative stereo) [Example 22, exo-11-(3-Methoxybenzyl)-4-phenyl-4,11-diazatricyclo[5.3.1.0^2,6]undec-9-ene-3,5,8-trione Trifluoroacetate]
18 | 1.23 | > 100 | – | – | Cc1cccc(CN2[C@@H]3C(=O)C=C[C@H]2[C@@H]2C(=O)N(c4cccc(Br)c4)C(=O)[C@@H]23)c1 (relative stereo) [Example 62, exo-4-(3-Bromophenyl)-11-(3-methylbenzyl)-4,11-diazatricyclo[5.3.1.0^2,6]-undec-9-ene-3,5,8-trione Trifluoroacetate]
19 | 1.18 | 55.6 | – | – | Cc1ccc(CN2[C@@H]3C(=O)C=C[C@H]2[C@@H]2C(=O)N(c4ccccc4)C(=O)[C@@H]23)cc1 (relative stereo) [Example 4, exo-11-Methylbenzyl-4-phenyl-4,11-diazatricyclo[5.3.1.0^2,6]undec-9-ene-3,5,8-trione Trifluoroacetate]
20 | 0.94 | > 100 | 3.7 | > 100 | O=C1C=CC2C3C(=O)N(c4ccccc4)C(=O)C3C1N2Cc1ccccc1Br (stereo not drawn) [Example 20, 11-(2-Bromobenzyl)-4-phenyl-4,11-diazatricyclo[5.3.1.0^2,6]undec-9-ene-3,5,8-trione Trifluoroacetate]
21 | 0.9 | > 100 | – | – | O=C1C=C[C@H]2[C@@H]3C(=O)N(Cc4ccccc4)C(=O)[C@@H]3[C@@H]1N2Cc1ccccc1 (relative stereo) [Example 11, exo-4,11-Dibenzyl-4,11-diazatricyclo[5.3.1.0^2,6]undec-9-ene-3,5,8-trione Trifluoroacetate]
